Measurements as given in patent US6803369B1, “Compounds and methods for the treatment of neoplastic disease” (priority 2000, dated 2004).

Target: complex between DNA gyrase and pBR322 DNA (Staphylococcus aureus, UniProt P0A0K8+P20831)
Test: Binding assay demonstrating ternary complex formation (SEC with HPLC/MS detection)
Design: species or system S. aureus
Text: The above-defined compounds are an exemplary class of compounds, which display the attributes of the claimed compounds of this invention, that is, they act primarily by inhibition of topoisomerase. While the compounds and methods of the invention are directed to eukaryotic, particularly mammalian topoisomerase inhibition, bacterial DNA gyrase was used to illustrate the mechanism of action. The evidence, provided by bacterial enzyme, for such biological activity includes the fact that selective resistance to the compounds is associated with point mutations in Staphylococcus aureus GyrA and B subunits. Further, Escherichia coli and S. aureus DNA gyrase supercoiling activity is inhibited in vitro by the compounds. A ternary complex has been isolated which is composed of pBR322 relaxed circular DNA, S. aureus DNA gyrase, and test compounds. […] The compounds of the invention also show antagonism of ciprofloxacin-induced cleavage of linear DNA.
An excess of test compound is added, typically as a mixture of three ligands, and after incubation the excess compound is separated from the resulting DNA:gyrase complex using size exclusion chromatography (SEC), with reverse phase HPLC and on-line MS detection to identify and quantify the bound compound.

Sequence of complex between DNA gyrase and pBR322 DNA (P20831 whole entry): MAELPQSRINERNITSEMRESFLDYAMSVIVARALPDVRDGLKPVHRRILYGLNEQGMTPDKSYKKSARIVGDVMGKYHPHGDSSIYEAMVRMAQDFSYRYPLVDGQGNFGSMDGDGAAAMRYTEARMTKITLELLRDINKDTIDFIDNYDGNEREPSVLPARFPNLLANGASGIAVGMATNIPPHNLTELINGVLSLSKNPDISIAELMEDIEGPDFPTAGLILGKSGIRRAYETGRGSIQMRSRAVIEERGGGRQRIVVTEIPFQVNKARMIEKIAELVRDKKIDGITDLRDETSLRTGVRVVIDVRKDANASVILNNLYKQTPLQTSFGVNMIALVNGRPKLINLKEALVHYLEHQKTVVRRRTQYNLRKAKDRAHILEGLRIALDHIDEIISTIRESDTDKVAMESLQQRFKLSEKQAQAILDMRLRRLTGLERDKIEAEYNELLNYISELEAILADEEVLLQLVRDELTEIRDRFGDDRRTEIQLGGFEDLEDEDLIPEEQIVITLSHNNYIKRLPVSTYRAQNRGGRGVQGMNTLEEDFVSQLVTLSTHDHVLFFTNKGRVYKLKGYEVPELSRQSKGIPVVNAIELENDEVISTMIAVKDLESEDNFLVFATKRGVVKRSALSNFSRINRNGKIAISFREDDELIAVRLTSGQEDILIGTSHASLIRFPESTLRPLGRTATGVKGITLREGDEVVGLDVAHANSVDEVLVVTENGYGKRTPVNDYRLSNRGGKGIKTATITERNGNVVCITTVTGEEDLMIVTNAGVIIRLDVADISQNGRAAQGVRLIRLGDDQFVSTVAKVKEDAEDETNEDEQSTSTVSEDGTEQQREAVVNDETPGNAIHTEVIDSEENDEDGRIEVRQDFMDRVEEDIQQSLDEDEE
Sequence of complex between DNA gyrase and pBR322 DNA (P0A0K8 whole entry): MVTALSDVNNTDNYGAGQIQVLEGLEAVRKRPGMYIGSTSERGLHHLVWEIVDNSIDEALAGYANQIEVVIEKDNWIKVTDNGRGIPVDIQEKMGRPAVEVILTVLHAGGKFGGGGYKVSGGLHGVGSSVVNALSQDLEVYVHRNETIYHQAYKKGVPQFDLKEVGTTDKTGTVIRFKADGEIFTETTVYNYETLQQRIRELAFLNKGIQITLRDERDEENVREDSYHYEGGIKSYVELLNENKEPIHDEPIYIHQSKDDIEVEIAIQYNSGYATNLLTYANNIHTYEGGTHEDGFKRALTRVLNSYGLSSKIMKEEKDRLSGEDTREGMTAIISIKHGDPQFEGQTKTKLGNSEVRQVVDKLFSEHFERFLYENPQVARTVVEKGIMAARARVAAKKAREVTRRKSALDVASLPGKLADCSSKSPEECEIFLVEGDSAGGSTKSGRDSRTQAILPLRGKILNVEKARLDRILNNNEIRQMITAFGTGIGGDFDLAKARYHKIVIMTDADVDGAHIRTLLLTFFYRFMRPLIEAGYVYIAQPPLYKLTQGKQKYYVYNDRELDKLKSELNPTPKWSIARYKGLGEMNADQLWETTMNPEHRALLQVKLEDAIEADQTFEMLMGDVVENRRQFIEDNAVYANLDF

Structure (SMILES): CCCCCCCN1CCN(C[C@H](O)c2ccnc3ccc(OC)cc23)C[C@H]1CO.O=C(O)C(=O)O.O=C(O)C(=O)O [SB366676-AY, [2S]-1-Heptyl-4-[2-(R)-hydroxy-2-(6methoxyquinolin-4-yl)ethyl]-2-hydroxymethylpiperazine dioxalate]
- detection in the high molecular weight fraction on the SEC column (DNA gyrase + pBR322 DNA, clear resolution from excess ligand): detected in the high molecular weight fraction
- binding detected in mixture of ligands (in the presence of SB369890 and BRL26172CC): Only binding of SB366676-AY
- stoichiometry: molecules bound to each gyrase:DNA complex (stoichiometry studies): two
